Data from patent EP1102769B1, “TRICYCLIC CARBOXAMIDES” (SmithKline Beecham plc, priority 1998, dated 2000).

Test system: maximal (tonic hindlimb extension) electroshock seizures in male rats
Test: Maximal electroshock seizure (MEST) threshold test, rat model
Type: in vivo, rats (Sprague Dawley)
Conditions: 2 mg/kg p.o., suspension in methyl cellulose, one hour post dosing, statistically significant, percentage increase in CC50 compared to control
Description: The maximal electroshock seizure (MEST) threshold test in rodents is particularly sensitive for detecting potential anticonvulsant properties ^1. In this model, anticonvulsant agents elevate the threshold to electrically-induced seizures whilst proconvulsants lower the seizure threshold.
Mice (naive male, Charles River, U.K. CD-1 strain, 25 - 30g) are randomly assigned to groups of 10 - 20 and dosed orally or intraperitoneally at a dose volume of 10 ml/kg with various doses of compound (0.3 - 300 mg/kg) or vehicle. Mice are then subjected at 30 or 60 min post dose to a single electroshock (0.1 sec, 50Hz, sine wave form) administered via corneal electrodes. The mean current and standard error required to induce a tonic seizure in 50% (CC50) of the mice in a particular treatment group is determined by the 'up and down' method of Dixon and Mood (1948)^2. Statistical comparisons between vehicle- and drug-treated groups are made using the method of Litchfield and Wilcoxon (1949)^3. […]
The threshold for maximal (tonic hindlimb extension) electroshock seizures in male rats (Sprague Dawley, 80 - 150g, 6 weeks old) was determined by a Hugo Sachs Electronik stimulator which delivered a constant current (0.3 sec duration; from 1-300mA in steps of 5-20mA). . […]
The percentage increase or decrease in CC50 for each group compared to the control is calculated. […]

COc1ccc(C(=O)Nc2ccc3c(c2)C2CCCN2CC3)cc1C(F)(F)F (racemic) [Example 3, (+/-)N-(1,2,3,5,6,10b-hexahydropyrrolo[2,1-a]isoquinolin-9-yl)-4-methoxy-3-trifluoromethylbenzamide]
increase in seizure threshold: 426%
